Laboratory results published in the NIST ThermoML archive (doi:10.1016/j.jct.2014.01.030).

Assays:
[1] = Liquid; for speed of sound: Sing-around technique in a fixed-path interferometer; for mass density: Vibrating tube method; for viscosity: Capillary tube (Ostwald / Ubbelohde) method
[2] = molar heat capacity at constant pressure; details: 101.33 kPa, Liquid, Small sample (50 mg) DSC
[3] = refractive index (Na D-line) (dimensionless); details: 101.33 kPa, Liquid, Standard Abbe refractometry
[4] = xn = mol fraction of the nth substance listed; details: 101 kPa, Liquid, x1 = 1; for speed of sound: Sing-around technique in a fixed-path interferometer; for mass density: Vibrating tube method

CCn1cc[n+](C)c1.COS(=O)(=O)[O-] [1-ethyl-3-methylimidazolium methylsulfate]
[1], 101.33 kPa
Details	mass density [kg/m3]	speed of sound [m/s]	viscosity [mPa·s]
288.15 K	1287.57	1781	–
293.15 K	1284.26	1768	85.22
298.15 K	1280.81	1756	67.06
303.15 K	1277.28	1744	54.39
308.15 K	1273.97	1732	44.68
313.15 K	1270.57	1720	37.1
318.15 K	1267.18	1709	31.27
323.15 K	1263.81	1697	26.81
328.15 K	1260.45	1686	22.74
333.15 K	1257.09	1675	19.71
338.15 K	1253.75	1663	17.25
343.15 K	1250.42	1652	15.16

Details	molar heat capacity at constant pressure, [2] [J/K/mol]	refractive index, [3]
288.15 K	331.48	–
293.15 K	–	1.48252
298.15 K	340.77	1.48125
303.15 K	–	1.47998
308.15 K	346.99	1.47868
313.15 K	–	1.4774
318.15 K	–	1.47612
323.15 K	–	1.4748
328.15 K	–	1.4735
333.15 K	–	1.47218
338.15 K	–	1.47086
343.15 K	–	1.46954

CCC(C)O (configuration not stated) [butan-2-ol]
[1], 101 kPa
Details	mass density [kg/m3]	speed of sound [m/s]
288.15 K	810.96	1249
298.15 K	802.82	1213
308.15 K	794.34	1177

Details	refractive index
[3], 298.15 K	1.39487

CCC(C)O (configuration not stated) [butan-2-ol] + CCn1cc[n+](C)c1.COS(=O)(=O)[O-]
[4]
Details	mass density [kg/m3]	speed of sound [m/s]
288.15 K	810.96	1249
298.15 K	802.82	1213
308.15 K	794.34	1177

CCO [ethanol]
[1], 101 kPa
Details	mass density [kg/m3]	speed of sound [m/s]
288.15 K	794.04	1179
298.15 K	785.52	1145
308.15 K	776.87	1111

Details	refractive index
[3], 298.15 K	1.35907

CCO [ethanol] + CCn1cc[n+](C)c1.COS(=O)(=O)[O-]
[4]
Details	mass density [kg/m3]	speed of sound [m/s]
288.15 K	794.04	1179
298.15 K	785.52	1145
308.15 K	776.87	1111

CO [methanol]
[1], 101 kPa
Details	mass density [kg/m3]	speed of sound [m/s]
288.15 K	796.46	1137
298.15 K	787.1	1104
308.15 K	777.64	1071

Details	refractive index
[3], 298.15 K	1.32649

CO [methanol] + CCn1cc[n+](C)c1.COS(=O)(=O)[O-]
[4]
Details	mass density [kg/m3]	speed of sound [m/s]
288.15 K	796.46	1137
298.15 K	787.1	1104
308.15 K	777.64	1071

CCCCCO [pentan-1-ol]
[1], 101 kPa
Details	mass density [kg/m3]	speed of sound [m/s]
288.15 K	818.25	1310
298.15 K	810.99	1276
308.15 K	803.61	1243

Details	refractive index
[3], 298.15 K	1.40774

CCCCCO [pentan-1-ol] + CCn1cc[n+](C)c1.COS(=O)(=O)[O-]
[4]
Details	mass density [kg/m3]	speed of sound [m/s]
288.15 K	818.25	1310
298.15 K	810.99	1276
308.15 K	803.61	1243

CCCO [propan-1-ol]
[1], 101 kPa
Details	mass density [kg/m3]	speed of sound [m/s]
288.15 K	808.48	1243
298.15 K	800.5	1208
308.15 K	792.38	1174

Details	refractive index
[3], 298.15 K	1.38286

CCCO [propan-1-ol] + CCn1cc[n+](C)c1.COS(=O)(=O)[O-]
[4]
Details	mass density [kg/m3]	speed of sound [m/s]
288.15 K	808.48	1243
298.15 K	800.5	1208
308.15 K	792.38	1174

CC(C)O [propan-2-ol]
[1], 101 kPa
Details	mass density [kg/m3]	speed of sound [m/s]
288.15 K	790.01	1177
298.15 K	781.67	1141
308.15 K	773.03	1106

Details	refractive index
[3], 298.15 K	1.37523

CC(C)O [propan-2-ol] + CCn1cc[n+](C)c1.COS(=O)(=O)[O-]
[4]
Details	mass density [kg/m3]	speed of sound [m/s]
288.15 K	790.01	1177
298.15 K	781.67	1141
308.15 K	773.03	1106
